Experimental data published in ChEMBL document CHEMBL5053513, “Discovery of bilirubin as novel P2X7R antagonist with anti-tumor activity” (Bioorg Med Chem Lett, 2021).
Active and inactive are the calls of the source. No cut-off for these calls is given here.

Assays:
[1] = target: T1, P2X purinoceptor 7 (Homo sapiens) (UniProt Q99572); test: Antagonist activity at human P2X7R expressed in human RKO cells assessed as reduction in ethidium bromide uptake at 100 uM in presence of BzATP; type: cell-based
T1 sequence (whole entry): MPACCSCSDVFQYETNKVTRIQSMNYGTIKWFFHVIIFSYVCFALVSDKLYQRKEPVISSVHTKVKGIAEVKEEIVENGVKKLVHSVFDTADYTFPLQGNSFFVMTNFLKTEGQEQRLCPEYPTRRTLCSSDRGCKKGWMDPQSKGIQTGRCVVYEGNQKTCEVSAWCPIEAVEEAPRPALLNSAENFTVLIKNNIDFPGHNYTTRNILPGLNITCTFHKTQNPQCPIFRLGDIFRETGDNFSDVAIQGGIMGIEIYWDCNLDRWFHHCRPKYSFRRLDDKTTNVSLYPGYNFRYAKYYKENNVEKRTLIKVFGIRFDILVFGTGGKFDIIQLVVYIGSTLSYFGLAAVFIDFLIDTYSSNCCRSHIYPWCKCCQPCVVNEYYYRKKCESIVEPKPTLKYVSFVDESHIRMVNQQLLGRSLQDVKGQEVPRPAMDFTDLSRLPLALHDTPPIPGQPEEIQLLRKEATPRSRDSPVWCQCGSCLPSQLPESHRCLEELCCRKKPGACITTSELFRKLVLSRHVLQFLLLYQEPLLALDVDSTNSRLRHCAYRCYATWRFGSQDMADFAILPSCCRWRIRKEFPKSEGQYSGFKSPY

HT-29 [2] = test: Cytotoxicity against human HT-29 cells assessed as cell growth inhibition at 50 uM after 24 hrs by MTT assay; type: functional, cell-based
RKO = test: Cytotoxicity against human RKO cells assessed as cell growth inhibition at 50 uM after 24 to 72 hrs by MTT assay; type: functional, cell-based; settings: time 24-72 hrs
HT-29 [3] = test: Cytotoxicity against human HT-29 cells assessed as cell growth inhibition at 50 uM after 48 to 72 hrs by MTT assay; type: functional, cell-based; settings: time 48-72 hrs
[4] = target: T2, P2X purinoceptor 7 (Mus musculus) (UniProt Q9Z1M0); test: Antagonist activity at mouse P2X7R expressed in mouse CT26 cells assessed as reduction in ethidium bromide uptake by cells at 100 uM in presence of BzATP; type: cell-based
T2 sequence (whole entry): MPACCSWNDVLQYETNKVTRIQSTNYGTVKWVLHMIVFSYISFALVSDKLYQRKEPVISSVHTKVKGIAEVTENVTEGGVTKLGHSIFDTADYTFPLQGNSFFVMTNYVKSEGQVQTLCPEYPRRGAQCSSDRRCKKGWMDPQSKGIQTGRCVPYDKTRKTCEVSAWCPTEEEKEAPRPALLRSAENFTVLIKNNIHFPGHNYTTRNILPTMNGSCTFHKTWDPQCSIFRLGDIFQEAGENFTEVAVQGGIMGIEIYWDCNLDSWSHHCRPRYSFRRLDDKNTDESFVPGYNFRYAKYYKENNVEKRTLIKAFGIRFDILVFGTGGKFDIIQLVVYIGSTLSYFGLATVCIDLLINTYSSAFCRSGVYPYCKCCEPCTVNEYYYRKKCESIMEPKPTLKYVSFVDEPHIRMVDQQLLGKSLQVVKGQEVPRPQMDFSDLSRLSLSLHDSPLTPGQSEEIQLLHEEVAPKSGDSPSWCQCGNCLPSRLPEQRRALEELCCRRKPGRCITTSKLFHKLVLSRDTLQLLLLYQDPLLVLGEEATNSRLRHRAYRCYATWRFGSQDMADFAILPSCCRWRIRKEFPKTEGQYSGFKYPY

[5] = target: T1, P2X purinoceptor 7 (Homo sapiens); test: Antagonist activity at human P2X7R expressed in human HT-29 cells assessed as reduction in ethidium bromide uptake at 100 uM in presence of BzATP; type: cell-based; settings: filed as antagonist
HUVEC = test: Cytotoxicity against HUVEC cells assessed as reduction in cell growth inhibition at 50 uM measured after 24 to 72 hrs by MTT assay; type: cell-based; settings: human, time 24-72 hrs
HT-29 [6] = test: Antimigratory activity against human HT-29 cells assessed as reversal of BzATP induced cell migration at 50 uM; type: functional, cell-based

SMILES | Activity [1] | Activity (HT-29 [2]) | Activity (RKO) | Activity (HT-29 [3]) | Activity [4] | Activity [5] | Activity (HUVEC) | Activity (HT-29 [6])
COc1ccc(CC(=O)NC(N/C(=N/C#N)Nc2cccc3ncccc23)C(C)(C)C)cc1OC (stereo not drawn) | inactive | inactive | inactive | Active | inactive | Active |  | 
CCOc1ccc(-n2c(=O)[nH]c3c(C(N)=O)nc(-c4cc(F)ccc4F)nc32)cc1 | inactive | Active | inactive | Active |  | Active | Toxic | Active
